Source: PubChem BioAssay AID1918958 (Molecular Pharmacology Branch, DTP, NCI, 2023)
“And” between values parts separate entries of the source, which are not always exact repeats. Identical values can stand only once.

Tested on: NCI-H196 complex spheroid viability
Test: Anticancer human tumor NCI-H196 cell line growth inhibition [LSD1];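 also: spheroids exposed to agents for 7 days before readout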
Settings: for viability, T/C: stronger effect = lower value; active = viability on the fitted dose curve at most 10% of control; inactive = the rest
Excerpt: Multicellular complex tumor spheroid response to LSD1 Inhibitor Iadademstat in combination with a variety of drugs and investigational agents in selected tumor cell lines
The current study was undertaken to assess response to LSD1 inhibitors in combination with standard-of-care drugs and investigational agents in solid tumor complex spheroid models as well as in the K-562 leukemia. Complex spheroids include a stromal component modeled by human endothelial cells (HUVEC) and fibroblasts modeled by human mesenchymal stem cells (MSCs). The concentration ranges selected for each drug and investigational agent were based upon clinically achievable concentrations if the clinical Cmax of the agent was known.
Compounds. The drugs and investigational agents used in this study are listed on Table 1. All of the agents used, including staurosporine (NSC755774) and gemcitabine (NSC613327), were obtained from the Developmental Therapeutics Program, NCI. FDA-approved anticancer drugs are available from the NCI at http://dtp.nci.nih.gov/branches/dscb/oncology_drugset_explanation.html. Drugs and investigational agents were >95% pure by proton nuclear magnetic resonance (NMR) and liquid chromatography/mass spectrometry (LC/MS). Stock solutions were prepared at 400x in DMSO, stored at -70 degrees C, and diluted in fresh medium prior to their use. The final concentration of DMSO in cell culture wells never exceeded 0.25% (v/v). The FDA-approved anticancer drug set is available from the Developmental Therapeutics Program at https://dtp.cancer.gov/organization/dscb/obtaining/available_plates.htm. All drugs and investigational agents were tested over a range starting from a high concentration at or near the clinical Cmax and decreasing in half-log increments. If the clinical Cmax for an agent had not been determined, the highest concentration tested was 10 microM.
Cell Lines. The patient-derived cancer cell (PDC) lines: 292921-168-R-J2-PDC, K24384-001-R-PDC, and 521955-158-R2-J5-PDC pancreatic carcinomas, 556581-035-R-J1 ovarian carcinoma, 324938-238-R-J1-PDC, 855422-203-R-J1-PDC and 883617-216-R-J1-PDC urothelial bladder carcinomas, 743489-274-T-PDC renal cell carcinoma, 138582-R-J1 Merkel cell tumor, K60290-347-R-J1 and K57222-313-R-J1-PDC glioblastomas, 653999-131-R-J2-PDC, LG0703-F948-PDC, and 349418-098-R-PDC non-small cell lung carcinomas, 885512-296-R-J2-PDC, 171881-019-R-J1-PDC breast carcinomas and 186277-243-T-J2-PDC and 233499-124-R-J2-PDC colon carcinomas were obtained from the NCI Patient-Derived Models Repository (PDMR, https://pdmr.cancer.gov). The established cell lines NCI/ADR-RES (RRID:CVCL_14520 and OVCAR-5 (RRID:CVCL_1628) ovarian carcinomas, 786-O (RRID:CVCL_1051) and A498 (RRID:CVCL_A498) renal cell carcinoma, NCI-H211 (ATCC, cat. CRL-5824; RRID:CVCL_1529), NCI-H196 (ATCC, cat. CRL-5823, RRID:CVCL_1509), SW 1271 (ATCC, cat. CRL-2177, RRID:CVCL_1716) and NCI-H1876 (ATCC, cat. CRL-5902, RRID:CVCL_1503) small cell lung carcinomas, MDA-MB-231 (RRID:CVCL_0062) and MDA-MB-468 (RRID:CVCL_0419)breast carcinomas (10-12). Pooled donor human umbilical vein endothelial cells (HUVEC, Lonza, cat. CC-2519) and human mesenchymal stem cells (hMSC, Lonza, cat. PT-2501) were purchased from Lonza (Walkersville, MD).
Cell Culture. All cells were maintained in an incubator at 37 degrees C and 5% CO2 with 95% humidity. The PDC lines were cultured according to standard operating procedures established by the NCI PDMR (https://pdmr.cancer.gov). Briefly all PDCs were thawed and cultured in Matrigel-coated flasks prepared with a working solution of 1X Ham's F-12 nutrient mix, without supplementation (Invitrogen, Waltham, MA, cat. 11765054), 100 U/mL penicillin-streptomycin (Invitrogen, cat. 15140122), and 2.5% Matrigel (Corning Inc., Corning, NY, cat. 354248) for the first three passages. […]

[1] = curve of first compound, second compound 0.1 µM
[2] = curve of first compound, second compound 0.316 µM
[3] = curve of first compound, second compound 1 µM
[4] = curve of first compound, second compound 3.16 µM
[5] = curve of first compound, second compound 10 µM
[6] = second compound 0.1 µM, first compound 0.00316 µM
[7] = second compound 0.1 µM, first compound 0.01 µM
[8] = second compound 0.1 µM, first compound 0.0316 µM
[9] = second compound 0.1 µM, first compound 0.1 µM
[10] = second compound 0.1 µM, first compound 0.316 µM
[11] = second compound 0.1 µM, first compound 1 µM
[12] = second compound 0.316 µM, first compound 0.00316 µM
[13] = second compound 0.316 µM, first compound 0.01 µM
[14] = second compound 0.316 µM, first compound 0.0316 µM
[15] = second compound 0.316 µM, first compound 0.1 µM
[16] = second compound 0.316 µM, first compound 0.316 µM
[17] = second compound 0.316 µM, first compound 1 µM
[18] = second compound 1 µM, first compound 0.00316 µM
[19] = second compound 1 µM, first compound 0.01 µM
[20] = second compound 1 µM, first compound 0.0316 µM
[21] = second compound 1 µM, first compound 0.1 µM
[22] = second compound 1 µM, first compound 0.316 µM
[23] = second compound 1 µM, first compound 1 µM
[24] = second compound 3.16 µM, first compound 0.00316 µM
[25] = second compound 3.16 µM, first compound 0.01 µM
[26] = second compound 3.16 µM, first compound 0.0316 µM
[27] = second compound 3.16 µM, first compound 0.1 µM
[28] = second compound 3.16 µM, first compound 0.316 µM
[29] = second compound 3.16 µM, first compound 1 µM
[30] = second compound 10 µM, first compound 0.00316 µM
[31] = second compound 10 µM, first compound 0.01 µM
[32] = second compound 10 µM, first compound 0.0316 µM
[33] = second compound 10 µM, first compound 0.1 µM
[34] = second compound 10 µM, first compound 0.316 µM
[35] = second compound 10 µM, first compound 1 µM
[36] = second compound 0.1 µM, first compound 3.16 µM
[37] = second compound 0.1 µM, first compound 10 µM
[38] = second compound 0.316 µM, first compound 3.16 µM
[39] = second compound 0.316 µM, first compound 10 µM
[40] = second compound 1 µM, first compound 3.16 µM
[41] = second compound 1 µM, first compound 10 µM
[42] = second compound 3.16 µM, first compound 3.16 µM
[43] = second compound 3.16 µM, first compound 10 µM
[44] = second compound 10 µM, first compound 3.16 µM
[45] = second compound 10 µM, first compound 10 µM

Nc1ncn(C2CC(O)C(CO)O2)c(=O)n1 (centres undefined) + NC1CC1c1ccc(-c2cccc(O)c2)cc1
inactive: viability, T/C [6] 98.6% | viability, T/C [7] 99.9% | viability, T/C [8] 99.7% | viability, T/C [9] 87.9% | viability, T/C [10] 99.5% | viability, T/C [11] 97.9% | viability, T/C [12] 97.5% | viability, T/C [13] 95.6% | viability, T/C [14] 98.9% | viability, T/C [15] 89% | viability, T/C [16] 94.2% | viability, T/C [17] 97% | viability, T/C [18] 98.4% | viability, T/C [19] 100% | viability, T/C [20] 98.7% | viability, T/C [21] 91.2% | viability, T/C [22] 96.4% | viability, T/C [23] 97.7% | viability, T/C [24] 96.4% | viability, T/C [25] 95% | viability, T/C [26] 98.1% | viability, T/C [27] 88.9% | viability, T/C [28] 106% | viability, T/C [29] 95.9% | viability, T/C [30] 105% | viability, T/C [31] 106% | viability, T/C [32] 96.3% | viability, T/C [33] 98.4% | viability, T/C [34] 95.4% | viability, T/C [35] 95.2%
> 1 µM: IC50 [1] | IC50 [2] | IC50 [3] | IC50 [4] | IC50 [5]

CC1COCCN1c1cc(C2(S(C)(=N)=O)CC2)nc(-c2ccnc3[nH]ccc23)n1 (centres undefined) + NC1CC1c1ccc(-c2cccc(O)c2)cc1
inactive: viability, T/C [8] 97.7% | viability, T/C [9] 88.3% | viability, T/C [10] 92.2% | viability, T/C [11] 89.1% | viability, T/C [36] 73.9% | viability, T/C [37] 63.6% | viability, T/C [14] 97.3% | viability, T/C [15] 95.8% | viability, T/C [16] 88% | viability, T/C [17] 89.6% | viability, T/C [38] 77.1% | viability, T/C [39] 64.5% | viability, T/C [20] 98.2% | viability, T/C [21] 93.1% | viability, T/C [22] 108% | viability, T/C [23] 89.2% | viability, T/C [40] 67.7% | viability, T/C [41] 62% | viability, T/C [26] 103% | viability, T/C [27] 96.8% | viability, T/C [28] 93.9% | viability, T/C [29] 85.6% | viability, T/C [42] 70.2% | viability, T/C [43] 61.5% | viability, T/C [32] 94.8% | viability, T/C [33] 102% | viability, T/C [34] 93% | viability, T/C [35] 91.6% | viability, T/C [44] 71.3% | viability, T/C [45] 64.3%
> 10 µM: IC50 [1] | IC50 [2] | IC50 [3] | IC50 [4] | IC50 [5]

Nc1ccn(C2OC(CO)C(O)C2(F)F)c(=O)n1 (centres undefined)
> 0.3 µM: IC50 (curve of compound)
inactive: viability, T/C (compound 0.000949 µM) 98.3% and 103% | viability, T/C (compound 0.003 µM) 95.8% and 101% | viability, T/C (compound 0.00949 µM) 97.9% and 81.6% | viability, T/C (compound 0.03 µM) 66.4% and 65.5% | viability, T/C (compound 0.0949 µM) 68.4% and 66.2% | viability, T/C (compound 0.3 µM) 63.8%

O=C(C=Cc1cccc(S(=O)(=O)Nc2ccccc2)c1)NO
active: viability, T/C (compound 0.949 µM) 0.4% | viability, T/C (compound 3 µM) 0.41% and 0.39%
0.155 µM and 0.119 µM: IC50 (curve of compound)
inactive: viability, T/C (compound 0.00949 µM) 107% and 99.7% | viability, T/C (compound 0.03 µM) 103% and 104% | viability, T/C (compound 0.0949 µM) 70.1% and 56.7% | viability, T/C (compound 0.3 µM) 22.9% and 15%

COc1ccc([C@@H](O)c2cc(-c3ncnc4cc(N5CCOCC5)ccc34)c(F)cc2Cl)nn1 + NC1CC1c1ccc(-c2cccc(O)c2)cc1
6.48 µM: IC50 [5]
inactive: viability, T/C [8] 106% | viability, T/C [9] 98.6% | viability, T/C [10] 79.1% | viability, T/C [11] 68.4% | viability, T/C [36] 64.2% | viability, T/C [37] 52% | viability, T/C [14] 92% | viability, T/C [15] 90% | viability, T/C [16] 82.7% | viability, T/C [17] 71% | viability, T/C [38] 60.7% | viability, T/C [39] 50% | viability, T/C [20] 102% | viability, T/C [21] 94.7% | viability, T/C [22] 90% | viability, T/C [23] 69.4% | viability, T/C [40] 62.2% | viability, T/C [41] 50.1% | viability, T/C [26] 94.9% | viability, T/C [27] 105% | viability, T/C [28] 90.8% | viability, T/C [29] 68.2% | viability, T/C [42] 59.9% | viability, T/C [43] 48.2% | viability, T/C [32] 103% | viability, T/C [33] 100% | viability, T/C [34] 86.2% | viability, T/C [35] 72.8% | viability, T/C [44] 59.2% | viability, T/C [45] 44.7%
> 10 µM: IC50 [1] | IC50 [2] | IC50 [3] | IC50 [4]

O=C(C=Cn1cnc(-c2cc(C(F)(F)F)cc(C(F)(F)F)c2)n1)NNc1cnccn1 + NC1CCC(NC2CC2c2ccccc2)CC1
inactive: viability, T/C [6] 32.9% | viability, T/C [7] 27.2% | viability, T/C [8] 22.3% | viability, T/C [9] 15.1% | viability, T/C [10] 14.4% | viability, T/C [12] 31.6% | viability, T/C [13] 25.9% | viability, T/C [14] 19.7% | viability, T/C [15] 14.1% | viability, T/C [16] 14.5% | viability, T/C [17] 10.1% | viability, T/C [18] 38% | viability, T/C [19] 25.1% | viability, T/C [20] 22.3% | viability, T/C [21] 17.1% | viability, T/C [22] 15.7% | viability, T/C [23] 10.4% | viability, T/C [24] 30.6% | viability, T/C [25] 29.2% | viability, T/C [26] 21.1% | viability, T/C [27] 17.1% | viability, T/C [28] 13.9% | viability, T/C [29] 12.9% | viability, T/C [30] 38.2% | viability, T/C [31] 25.6% | viability, T/C [32] 16% | viability, T/C [33] 19.1% | viability, T/C [34] 14.5% | viability, T/C [35] 11.9%
active: viability, T/C [11] 9.29%
< 0.00316 µM: IC50 [1] | IC50 [2] | IC50 [3] | IC50 [4] | IC50 [5]
